The text below walks through data of paper PMC7409197, “Adenosine Receptors as Neuroinflammation Modulators: Role of A1 Agonists and A2A Antagonists” (Cells, 2020).

Holding throughout (format): cell-based, rat
The test system of test [1] is mixed glial cells. Put plainly: CellTiter 96 AQueous One (MTS) cell viability, ligands alone, mixed glial cells. How it is done:
(§1) Newborn male Wistar rats were sacrificed and mixed glial cell cultures were obtained from the cerebral cortices. Cerebral cortices were dissected, and meninges were cleared away. Tissues were treated with trypsin solution (trypsin 0.05% (w/v) trypsin-EDTA 5 mM) for 25 min at 37 °C. The tissue was fully disaggregated by pipetting and the dissociated cells were seeded in a 6-well plate with Dulbecco’s modified Eagle’s/High glucose medium enriched with 100 U/mL penicillin, 100 µg/mL streptomycin and 10% FBS. Fresh medium was changed the next day and then every 3 days decreasing the quantity of FBS. All experiments were carried out after 7–9 days of plating.
(§2) Mixed glial cell cultures were divided into 2 groups, one to study A1AR partial agonists and another for A2AAR antagonists. Cells from the first group were pre-treated with 2 µL at three different concentrations of C1 for 15, 30 or 60 min and then with further addition of a pro-inflammatory cocktail of cytokines (TNF-α, 20 ng/mL; IL-1β, 20 ng/mL; IFN-γ 20 ng/mL) for 48 h. […] To study C2 cells were pre-treated with the same CK cocktail for 48 h and then with 2 µL of C2 at three different concentrations for 15, 30, or 60 min (Scheme 1). ZM241385, a well known A2AAR antagonist, was used as reference compound. Furthermore, ligands and CK were tested alone for 15, 30 or 60 min and 48 h respectively.
(§3) 1.7 × 10^4 mixed glial cells were cultured in 98 μL of the specific medium in a 96 well plate overnight. The next day 2 μL of ligand or CK cocktail were added to the well. After all treatments, 20 µL of CellTiter 96® AQueous One Solution Reagent was added in a final volume of 100 µL. Absorbance was read at 490 nm using the plate reader GENiosPro. Cell viability was calculated as percentage using the following formula: Cell viability =OD mean of treated cells/OD mean of control cells × 100

The subject of test [2] is mixed glial cells. Put plainly: MTS cell viability in cytokine cocktail (CK) inflammatory model, mixed glial cells. How it is done: as §1, §2, §3
Test [3] deals with mixed glial cells. Put plainly: Griess assay (nitrite production) in mixed glial cells. To be noted: 10 nM, 30 min, after CK cocktail. The protocol: To test the antioxidant capacity of these new molecules Griess assay was performed. The Griess Reagent System is based in the conversion of sulphanilamide into an azo-compound with the presence of N-1-napthylenediamide dihydrochloride (NED) under acidic condition. 1.7 × 10^4 mixed glial cells were cultured in 98 μL of the specific medium in a 96 well plate overnight. After 24 h the media from each well of the cell culture was transferred into a 96 well plate and then 50 µL of the sulphanilamide solution was added to each well. After 5–10 min of incubation at room temperature (rt), 50 µL of the NED Solution were dispensed to all wells and they were incubated at rt for other 5–10 min. Absorbance was measured within 30 min in the plate reader GENiosPro with a filter between 520 nm and 550 nm. This experiment was performed 3–5 replicates. Concentration of NO¬¬¬¬2¯ in each sample was determined by comparison to a Nitrite standard reference curve.

Take `OC[C@H]1O[C@@H](n2cnc3c(NC4CCCC4)nc(Cl)nc32)[C@H](O)[C@@H]1O` [CCPA, 2-chloro-N^6-cyclopentyladenosine, reference compound]: in test [1] (ligand alone, 5, 10, 60 nM, 15, 30, 60 min), the “cell viability vs. control” value is recorded as “did not change cell viability significantly”. Further, the “prevention of CK aggression (cell viability, words)” value in test [2] (pre-treatment before CK cocktail 48 h, C1 2-30 µM, CCPA 10 nM 30 min) is reported as “prevent the CK aggression”.

For `Nc1nc(NCCc2ccc(O)cc2)nc2nc(-c3ccco3)nn12` [ZM241385, reference compound], the “cell viability vs. control” value is on record as 135 ± 3.5% in test [1] (ligand alone, 10 nM, time not stated at the place (highest effect at 30 min)) and 136 ± 1.7% in test [2] (CK cocktail 20 ng/mL 48 h, then ligand 10 nM for 30 min). Besides, the “nitrite levels in presence of CK cocktail” value in test [3] is “able to decrease NO¬¬¬¬2¯ levels induced by CK more than the well know ZM241385”.
